Measured values published in patent US4968717A, “Phenylacetonitriles which are substituted by basic groups, their preparation and drugs containing these substances” (BASF Aktiengesellschaft, priority 1986, dated 1990).

System: serotonin
Assay: not given
Details: literature; versus known serotonin antagonists; cited from earlier work
For `COc1ccc(CCN(C)CCCC(C#N)(c2cc(OC)c(OC)c(OC)c2)C(C)C)cc1OC` (stereo not shown) [Gallopamil, reference compound], the “antiserotonin action compared with known serotonin antagonists” value is given as “not very pronounced”. For `COc1ccc(CCN(C)CCCC(C#N)(c2ccc(OC)c(OC)c2)C(C)C)cc1OC` (stereo not shown) [Verapamil], the “antiserotonin action compared with known serotonin antagonists” value is listed as “not very pronounced”.

System: serotonin-induced increase in blood pressure
Assay: inhibition of the serotonin-induced increase in blood pressure in the pithed rat on intravenous administration
Format: in vivo, male Sprague-Dawley rats
Details: at dose 0.0464 mg/kg
Excerpt: Pithing is effected by means of a rod through the orbit. […] The criterium for effectiveness of a substance is the relative inhibition (Δ%) of the serotonin-induced increase in blood pressure (ΔmmHg). The valuation was effected quantitatively as an analysis of the linear regression (y=a+b x) of log dose (mg/kg) and relative inhibition (Δ%) of the serotonin-induced increase in blood pressure.
In the case of `COc1cc(CCN(C)CCCC(C#N)(c2ccc(Cl)cc2)C(C)C)cc(OC)c1` (stereo not shown) [Example 42, 5-[(3,5-dimethoxyphenethyl)-methylamino]-2-(4-chlorophenyl)-2-isopropylvaleronitrile], the “relative inhibition (Δ%) of the serotonin-induced increase in blood pressure” value is reported as 19%.

Same assay, conditions: at dose 0.1 mg/kg
In the case of `COc1ccc(CCN(C)CCCC(C#N)(c2cc(OC)c(OC)c(OC)c2)C(C)C)cc1OC` (stereo not shown) [Gallopamil, reference compound], the “relative inhibition (Δ%) of the serotonin-induced increase in blood pressure” value is reported as 22%.

Same assay, conditions: serotonin 0.0215 mg/kg i.v., linear regression of log dose and relative inhibition
In the case of “5-[(3,5-dimethoxyphenethyl)-methylamino]-2-(β,β,β-trifluoroethoxyphenyl)-2-isopropylvaleronitrile [Example 30]”, the “ED 50% (dose which inhibits the serotonin-induced increase in blood pressure by 50%)” value is reported as 0.1 mg/kg.

Same assay, conditions: serotonin 0.0215 mg/kg i.v., linear regression of log dose and relative inhibition, read-out: ED 50% (dose which inhibits the serotonin-induced increase in blood pressure by 50%)
`COc1ccc(CCN(C)CCCC(C#N)(c2cc(OC)c(OC)c(OC)c2)C(C)C)cc1OC` (stereo not shown) [Gallopamil, reference compound] gave an ED50 of 0.1 mg/kg. Compound `COc1cccc(CCN(C)CCCC(C#N)(c2ccccc2)C(C)C)c1` (stereo not shown) [Example 13, 5-[(3-methoxyphenethyl)-methylamino]-2-phenyl-2-isopropylvaleronitrile] has an ED50 of 0.0464 mg/kg. `COc1cc(C(C#N)(CCCN(C)CCc2cccc([N+](=O)[O-])c2)C(C)C)cc(OC)c1OC` (stereo not shown) [Example 37, 5-[(3-nitrophenethyl)-methylamino]-2-(3,4,5-trimethoxyphenyl)-2-isopropylvaleronitrile] showed an ED50 of 0.0464 mg/kg. Compound `COc1cccc(CCN(C)CCC[C@@](C#N)(c2ccc(OC)c(OC)c2)C(C)C)c1` [Example 58, (S)-5-[(3-methoxyphenethyl)-methylamino]-2-(3,4-dimethoxyphenyl)-2-isopropylvaleronitrile] has an ED50 of 0.0201 mg/kg. Work on `COc1cc(C(C#N)(CCCN(C)CCc2ccccc2)C(C)C)cc(OC)c1OC` (stereo not shown) [Example 60, 5-[(phenethyl)-methylamino]-2-(3,4,5-trimethoxyphenyl)-2-isopropylvaleronitrile] yielded an ED50 of 0.0464 mg/kg. `COc1cccc(CCN(C)CCCC(C#N)(c2cc(OC)cc(OC)c2)C(C)C)c1` (stereo not shown) [Example 2, 5-[(3-Methoxyphenethyl)-methylamino]-2-(3,5-dimethoxyphenyl)-2-isopropylvaleronitrile] gave an ED50 of 0.073 mg/kg. Work on `COc1cc(CCN(C)CCCC(C#N)(c2ccc(Cl)c(Cl)c2)C(C)C)cc(OC)c1` (stereo not shown) [Example 41, 5-[(3,5-dimethoxyphenethyl)-methylamino]-2-(3,4-dichlorophenyl)-2-isopropylvaleronitrile] yielded an ED50 of 0.1 mg/kg. With `COc1cc(C(C#N)(CCCN(C)CCc2cccc(C(F)(F)F)c2)C(C)C)cc(OC)c1OC` (stereo not shown) [Example 61, 5-[(3-trifluoromethylphenethyl)-methylamino]-2-(3,4,5-trimethoxyphenyl)-2-isopropylvaleronitrile] the ED50 was 0.0681 mg/kg. Compound `COc1cccc(CCN(C)CCCC(C#N)(c2cc(OC)c(OC)c(OC)c2)C(C)C)c1` (stereo not shown) [Example 36, 5-[(3-methoxyphenethyl)-methylamino]-2-(3,4,5-trimethoxyphenyl)-2-isopropylvaleronitrile] has an ED50 of 0.0464 mg/kg. `COc1cc(C(C#N)(CCCN(C)CCc2ccc3c(c2)COCO3)C(C)C)cc(OC)c1OC` (stereo not shown) [Example 39, 5-[(1,3-benzodioxan-6-ylethyl)-methylamino]-2-(3,4,5-trimethoxyphenyl)-2-isopropylvaleronitrile] showed an ED50 of 0.0395 mg/kg. In the case of `COc1cccc(CCN(C)CCCC(C#N)(c2cccc(OC)c2)C(C)C)c1` (stereo not shown) [Example 4, 5-[(3-Methoxyphenethyl)-methylamino]-2-(3-methoxy-phenyl)-2-isopropylvaleronitrile], the ED50 is reported as 0.0318 mg/kg. `COc1cc(C(C#N)(CCCN(C)CCc2cccc(Cl)c2)C(C)C)cc(OC)c1OC` (stereo not shown) [Example 38, 5-[(3-chlorophenethyl)-methylamino]-2-(3,4,5-trimethoxyphenyl)-2-isopropylvaleronitrile] gave an ED50 of 0.0681 mg/kg. Work on `C=CCC(C#N)(CCCN(C)CCc1ccccc1)c1cccc(Cl)c1` (stereo not shown) [Example 31, 5-[(phenethyl)-methylamino]-2-(3-chlorophenyl)-2-allylvaleronitrile] yielded an ED50 of 0.464 mg/kg. `COc1cccc(CCN(C)CCCC(C#N)(c2ccc(OC)c(OC)c2)C(C)C)c1` (racemic) [Example 57, (RS)-5-[(3-methoxyphenethyl)-methylamino]-2-(3,4-dimethoxyphenyl)-2-isopropylvaleronitrile] gave an ED50 of 0.0423 mg/kg. With `CCOc1cccc(C(C#N)(CCCN(C)CCc2cc(OC)cc(OC)c2)C(C)C)c1` (stereo not shown) [Example 17, 5-[(3,5-dimethoxyphenethyl)-methylamino]-2-(3-ethoxy-phenyl)-2-isopropylvaleronitrile] the ED50 was 0.1 mg/kg. `COc1cc(OC)cc(C(C#N)(CCCN(C)CCc2ccc3c(c2)OCO3)C(C)C)c1` (stereo not shown) [Example 27, 5-[(3,4-methylenedioxyphenethyl)-methylamino]-2-(3,5-dimethoxyphenyl)-2-isopropylvaleronitrile] gave an ED50 of 0.0464 mg/kg. `C=CCC(C#N)(CCCN(C)CCc1cccc(OC)c1)c1cccc(Cl)c1` (stereo not shown) [Example 32, 5-[(3-methoxyphenethyl)-methylamino]-2-(3-chlorophenyl)-2-allylvaleronitrile] gave an ED50 of 0.316 mg/kg. Work on `COc1cc(CCN(C)CCCC(C#N)(c2ccc(Cl)cc2)C(C)C)cc(OC)c1` (stereo not shown) [Example 42, 5-[(3,5-dimethoxyphenethyl)-methylamino]-2-(4-chlorophenyl)-2-isopropylvaleronitrile] yielded an ED50 of over 0.0464 mg/kg. For `COc1cc(CCN(C)CCCC(C#N)(C(C)C)C2CCc3ccccc3C2)cc(OC)c1` (stereo not shown) [Example 43, 5-[(3,5-dimethoxyphenethyl)-methylamino]-2-(1,2,3,4-tetrahydronaphth-2-yl)-2-isopropylvaleronitrile], the ED50 was 0.215 mg/kg. Compound `COc1ccc(C(C#N)(CCCN(C)CCc2ccc(Cl)c(Cl)c2)C(C)C)cc1OC` (stereo not shown) [Example 40, 5-[(3,4-dichlorophenethyl)-methylamino]-2-(3,4-dimethoxyphenyl)-2-isopropylvaleronitrile] has an ED50 of 0.1 mg/kg. `CCOc1cc(CCN(C)CCCC(C#N)(c2ccccc2)C(C)C)cc(OCC)c1` (stereo not shown) [Example 24, 5-[(3,5-diethoxyphenethyl)-methylamino]-2-phenyl-2-isopropylvaleronitrile] gave an ED50 of 0.1 mg/kg. Work on `COc1cc(CCN(C)CCCC(C#N)(c2cc(OC)cc(OC)c2)C(C)C)cc(OC)c1` (stereo not shown) [Example 59, 5-[(3,5-dimethoxyphenethyl)-methylamino]-2-(3,5-dimethoxyphenyl)-2-isopropylvaleronitrile] yielded an ED50 of 0.0464 mg/kg. `COc1cc(OC)cc(C(C#N)(CCCN(C)CCc2ccc(C)c(C)c2)C(C)C)c1` (stereo not shown) [Example 20, 5-[(3,4-xylylethyl)-methylamino]-2-(3,5-dimethoxyphenyl)-2-isopropylvaleronitrile] gave an ED50 of 0.1 mg/kg. With `COc1cc(CCN(C)CCCC(C#N)(c2cccc(OC)c2)C(C)C)cc(OC)c1` (stereo not shown) [Example 1, 5-[(3,5-Dimethoxyphenethyl)-methylamino]-2-(3-methoxyphenyl)-2-isopropylvaleronitrile] the ED50 was 0.0464 mg/kg. `COc1cc(CCN(C)CCCC(C#N)(c2ccccc2)C(C)C)cc(OC)c1` (stereo not shown) [Example 14, 5-[(3,5-dimethoxyphenethyl)-methylamino]-2-phenyl-2-isopropylvaleronitrile] showed an ED50 of 0.0464 mg/kg. With `CCOc1cccc(C(C#N)(CCCN(C)CCc2ccc(OC)c(OC)c2)C(C)C)c1` (stereo not shown) [Example 44, 5-[(3,4-dimethoxyphenethyl)-methylamino]-2-(3-ethoxy-phenyl)-2-isopropylvaleronitrile] the ED50 was 0.0464 mg/kg. `COc1cc(OC)cc(C(C#N)(CCCN(C)CCc2ccc(Cl)c(Cl)c2)C(C)C)c1` (stereo not shown) [Example 7, 5-[(3,4-Dichlorophenethyl)-methylamino]-2-(3,5-dimethoxyphenyl)-2-isopropylvaleronitrile] gave an ED50 of 0.1 mg/kg. `COc1cc(OC)cc(C(C#N)(CCCN(C)CCc2cccc(C(F)(F)F)c2)C(C)C)c1` (stereo not shown) [Example 8, 5-[(3-Trifluoromethylphenethyl)-methylamino]-2-(3,5-dimethoxyphenyl)-2-isopropylvaleronitrile] gave an ED50 of 0.0499 mg/kg. With `COc1cc(OC)cc(C(C#N)(CCCN(C)CCc2ccccc2)C(C)C)c1` (stereo not shown) [Example 5, 5-[(Phenethyl)methylamino]-2-(3,5-dimethoxyphenyl)-2-isopropylvaleronitrile] the ED50 was 0.0464 mg/kg. With `COc1cccc(C(C#N)(CCCN(C)CCc2ccccc2)C(C)C)c1` (stereo not shown) [Example 3, 5-[(Phenethyl)-methylamino]-2-(3-methoxyphenyl)-2-isopropylvaleronitrile] the ED50 was 0.0464 mg/kg. With `COc1cc(OC)cc(C(C#N)(CCCN(C)CCc2ccc(Cl)cc2)C(C)C)c1` (stereo not shown) [Example 6, 5-[(4-Chlorophenethyl)-methylamino]-2-(3,5-dimethoxyphenyl)-2-isopropylvaleronitrile] the ED50 was 0.1 mg/kg. Work on `CCOc1cc(CCN(C)CCCC(C#N)(c2cc(OC)cc(OC)c2)C(C)C)cc(OCC)c1` (stereo not shown) [Example 19, 5-[(3,5-diethoxyphenethyl)-methylamino]-2-(3,5-dimethoxyphenyl)-2-isopropylvaleronitrile] yielded an ED50 of 0.1 mg/kg.
